Assay results published in publication PMC12505902, “Inhibitors of trehalose-6-phosphate synthase activity in fungal pathogens compromise thermal tolerance pathways” (mBio, 2025).

Test system: C. glabrata
Experiment: Fungicidal spot assay on compound-free YPD plates
Type: cell-based
Method: Fig 4 4456dh inhibits the growth of Candida and Cryptococcus species. […] 4456dh was administered at the concentrations indicated. Cultures were grown in YPD at the listed temperatures for 48 hours for Candida species and 72 hours for Cryptococcus species. Experimental temperatures reflect the temperatures at which the fungi experience heat stress. Left: relative growth of treated samples was calculated by averaging technical triplicates and normalizing the OD600 of each treated well to the average OD600 of the untreated WT controls, after the absorbance due to the compound was subtracted. The MIC80 values, calculated based on the OD600 values, are indicated in the white text on each heat map. […]
124 technical replicates. Growth, as determined by a reading of absorbance at 600 nm, was
125 normalized to untreated controls and was corrected for the absorbance of 4456dh in the YPD […]
129 overnight cultures was quantified by measuring the OD600 and corrected for the background
130 absorbance of the medium. Antifungal potency for 4456dh was assessed by minimum inhibitory […]
137 replicates. Growth, as determined by a reading of absorbance at 600 nm, was normalized to
138 untreated controls and was corrected for the absorbance of 4456dh in the YPD medium. […]
139 minimum inhibitory concentration causing 80% growth reduction, or MIC80, was determined based […]

**Q.** What does the source list for Cn1cc(-c2csc(NC(=O)Cc3ccccn3)n2)cn1 [Compound 4456dh]?
**A.** fungicidal activity (30°C exposure): no MIC or fungicidal activity was detected; concentration from which fungicidal activity starts (42°C exposure): approximately 7.8 µM
